Data: patent US20240408114A1, “METHODS FOR PREVENTING AND TREATING ACUTE KIDNEY INJURY” (The Johns Hopkins University, priority 2021, published 2024)

Key:
kidney T cells = test: T cells from post-cisplatin AKI kidneys, spectral flow cytometry; format: in vivo, mouse
Description: Given the significant protective outcomes in ischemic AKI, we subsequently tested the effect of glutamine blockade on a nephrotoxic AKI model, which is another common etiology of clinical AKI. After pretreatment with JHU083 or vehicle, 25 mg/kg of cisplatin was injected intraperitoneally. T cells were isolated and studied after 72 h after cisplatin treatment (FIG. 16A).
KMNCs were isolated according to our previously described Percoll density gradient protocol. Ascon et al., 2006. Briefly, decapsulated kidneys were immersed and incubated in collagenase D (2 mg/mL; Sigma-Aldrich) solution for 30 min at 37° C. Samples were strained through 70 µm cell strainer (BD Bioscience, Franklin Lakes, NJ), washed, and resuspended in 40% Percoll (GE Healthcare, Chicago, IL) followed by gentle overlaying onto 80% Percoll. After centrifugation at 1,500 g for 30 min in brake off mode at room temperature, KMNCs were collected from interface between 40% and 80% Percoll. Spleens were strained through 40 µm cell strainer (BD Bioscience) and incubated with ammonium-chloride-potassium lysis buffer (Quality Biological, Gaithersburg, MD) for 3 min. Collected cells were washed and resuspended with Roswell Park Memorial Institute (RPMI) 1640 media (Thermo Fisher Scientific, Waltham, MA) containing 5% fetal bovine serum (FBS, Thermo Fisher Scientific). Cells were counted on hemocytometer using trypan blue exclusion under a microscope.
Cells were washed once with phosphate buffered saline (PBS) and stained with viability dye Zombie NIR Fixable Viability (BioLegend, San Diego, CA) for 15 min at room temperature. After washing with Cell Staining Buffer (BioLegend), cells were preincubated with anti-CD16/CD32 Fc receptor blocking antibody (S17011E, BioLegend) for 15 min to prevent nonspecific antibody binding. Subsequently, surface staining was performed in 50 μL of BD horizon™ Brilliant Stain buffer and surface staining antibody cocktail for 30 min at 4° C.: Pacific blue anti-CD44 (IM7, BioLegend), BV510 anti-CD8 (53-6.7, BioLegend), BV570 anti-CD45 (30-F11, BioLegend), BV605 anti-CD69 (H1.2F3, BioLegend), BV650 anti-NK1.1 (PK136, BioLegend), BV711 anti-PD1 (29F.1A12, BioLegend), BV785 anti-TCRβ (H57-597, BioLegend), PE-Cy5.5 anti-CD25 (PC61.5, Thermo Fisher Scientific), APC-R700 anti-CD62L (MEL-14, BD Bioscience), and APC-Fire810 anti-CD4 (GK1.5, BioLegend). Cells were fixed and permeabilized with Foxp3/Transcription Factor Staining kit (Thermo Fisher Scientific) for 30 min at room temperature and washed with permeabilization/wash buffer (Thermo Fisher Scientific). Intracellular staining was conducted in 50 μL of permeabilization/wash buffer with intracellular staining antibody cocktail for 45 min at room temperature: BV421 anti-Ki67 (16A8, BioLegend), Alexa Fluor 488 anti-CPT1a (8F6AE9, Abcam, Cambridge, UK), Alexa Fluor 532 anti-VDAC1 (20B12AF2, Abcam), PerCP-efluor 710 anti-FoxP3 (FJK-16S, Thermo Fisher Scientific), PE anti-GLUT1 (EPR3915, Abcam), Alexa Fluor 594 anti-pS6 (D68F8, Cell Signaling, Danvers, MA), PE-Cy5 anti-HKII (EPR20839, Abcam), PE-Cy7 anti-H3K27me3 (C36B11, Cell Signaling), and Alexa Fluor 647 anti-Tomm20 (EPR15581-54, Abcam). After staining, cells were washed with permeabilization/wash buffer then resuspended in Cell Staining Buffer. Samples were analyzed by 4-laser Aurora spectral flow cytometer (Cytek, Fremont, CA).
Glutamine antagonist, JHU083 was synthesized as previously described, Rais et al., 2016, and dissolved in 50 mM […] 4-(2-hydroxyethyl)-1-piperazineethanesulfonic acid (HEPES) buffered 0.9% saline. Aliquot stocks were stored at −80° C. and thawed right before injection. Before the IRI surgery or cisplatin injection, mice were administered 1.83 mg/kg JHU083 (equivalent to 1 mg/kg DON) or vehicle (50 mM HEPES buffered 0.9% saline) every other day via intraperitoneal injection. Following 4 consecutive dosages, mice underwent IRI surgery or cisplatin injection. […]

[1] = 1.83 mg/kg every other day i.p.; even with a longer duration of treatment; cited from earlier work
splenic T cells = test: In vitro hypoxia/reoxygenation of CD3/CD28 stimulated splenic T cells; format: cell-based, mouse
Description: In vitro studies were performed to evaluate the effect of glutamine blockade on activated T cells under hypoxia followed by reoxygenation. Splenic T cells (CD45^+, TCR αβ^+) were isolated and cultured using media containing 0.25 μM, 0.5 μM, or 1 μM of JHU083 or vehicle. After 24 h from the culture under CD3/CD28 stimulation, cells were exposed to hypoxia for 24 h followed by reoxygenation.
Kidney T cells were isolated using FACS. Briefly, single-cell suspension of KMNCs was preincubated with anti-CD16/CD32 Fc block (S17011E, BioLegend) stained in Cell Staining Buffer (BioLegend) with fluorochrome-labeled antibodies: APC-Cy7 anti-CD45 (30-F11) and BV421 anti-TCRβ ([…]) from BioLegend. Live Dead Aqua (Thermo Fisher Scientific) was stained for viability assay. […] TCRβ^+ cells were sorted with FACSAria II Cell Sorter (BD Bioscience). Splenic T cells were isolated from single cells suspension of spleens using a T Cell Isolation Kit II (Miltenyi Biotec, North Rhine-Westphalia, Germany) according to the manufacturer's guideline.
48-well flat-bottom plates were coated with 5-μg/mL anti-CD3 in PBS and incubated at 4° C. overnight. […]

[2] = post-cisplatin AKI kidneys, vehicle 21.4±2.7, P=0.001

**Q.** Which “CD69 expression in CD4+, CD8+, and DN T cells” value (kidney T cells; cisplatin AKI, FIG. 17C) does the source give for `CCOC(=O)[C@H](CCC(=O)C=[N+]=[N-])NC(=O)[C@@H](N)CC(C)C` [JHU083] here?
**A.** reduced

**Q.** What about the “CD69+ among kidney CD8+ T cells” value (kidney T cells; [2]) of the same compound?
**A.** 9.8±1.5%

**Q.** And the “Ki67+ among kidney CD8+ T cells” value (kidney T cells; [2])?
**A.** 9.8±1.5%

**Q.** And the “Ki67+ among kidney CD4+ T cells” value (kidney T cells; post-cisplatin AKI kidneys, vehicle 37.0±2.9, P=0.003)?
**A.** 25.4±1.8

**Q.** What about the “CD69+ among kidney CD4+ T cells” value (kidney T cells; post-cisplatin AKI kidneys, vehicle 37.0±2.9, P=0.014) of the same compound?
**A.** 25.4±1.8%

**Q.** What about the “CD62L+ among kidney CD4+ T cells” value (kidney T cells; post-cisplatin AKI kidneys, vehicle 37.5±3.2) of the same compound?
**A.** 52.5±3.0%

**Q.** What about the “CD44+ among kidney CD8+ T cells” value (kidney T cells; post-cisplatin AKI kidneys, vehicle 43.3±3.3, P<0.001) of the same compound?
**A.** 26.4±2.3%

**Q.** And the “CD62L+ among kidney CD8+ T cells” value (kidney T cells; post-cisplatin AKI kidneys, vehicle 48.9±4.2, P<0.001)?
**A.** 76.0±2.3%

**Q.** What about the “CD44+ among kidney CD4+ T cells” value (kidney T cells; post-cisplatin AKI kidneys, vehicle 50.2±3.4, P=0.037) of the same compound?
**A.** 40.9±2.4%

**Q.** What about the “tolerability of dosage regimen” value [1] of the same compound?
**A.** tolerable without significant toxicity

**Q.** What about the “expression of activation and proliferation markers (CD44, CD69, CD25, Ki67)” value (splenic T cells; 0.25 μM, 0.5 μM, or 1 μM JHU083, 24 h hypoxia followed by reoxygenation, dose-dependent, vs vehicle) of the same compound?
**A.** reduced expression of activation and proliferation markers

**Q.** What about the “metabolic profiles of treated T cells” value (splenic T cells; CD3/CD28 stimulation, hypoxia/reoxygenation, FIG. 18B) of the same compound?
**A.** exhibited unstimulated T cell phenotypes
